How the values were obtained:
Format in all cases: cell-based
[1] = system: Colon cancer (C26, murine) cells; assay: Tumor cell proliferation assay (ATP-lite), C26; details: Mus musculus, 96 h, inhibition of tumor cell growth by 50%, 4 days incubation, ATP-lite readout
Method: (§1) Assay 1: Tumor Cell Proliferation Assay:
(§2) Colon cancer (C26, murine), pancreatic cancer (MiaPaCa-2, human) cells were plated in 96-well white plates (Cat. No. 3917, Corning, Inc.) at 2.5×10^3 cells/well and cultured overnight at 37° C. in 5% CO2 in DMEM containing 10% FCS. Inhibitors were serially diluted in 100% DMSO and subsequently added to cells to reach a final concentration of 0.25% DMSO. Cell plates were incubated for an additional 4 days at 37° C. and 5% CO2 and cell proliferation was quantitated using the ATP-lite cell proliferation kit (Cat. No. 6016943, Perkin Elmer).
(§3) The ATPlite kit quantifies the ATP released from lysed cells by the generation of light caused by the reaction of the released ATP with the Luciferase and D-Luciferin contained in the kit. After the 4th day of incubation, the media is removed from the cell plates and replaced with 100 μL of PBS followed by 50 μL of the lysis solution. The plates are then shaken for 5 minutes on an orbital shaker followed by the addition of 50 μL of substrate solution. The plates are shaken for an additional 5 minutes followed by dark adaptation for 10 minutes and finally read on a Victor^3 V plate reader (1 second/well, Cat. No. 1420-041, Perkin Elmer).
(§4) Columns 2-3 show the concentration of compounds required to inhibit the growth of tumor cells by 50% (IC50 in μM).

[2] = system: pancreatic cancer (MiaPaCa-2, human) cells; assay: Tumor cell proliferation assay (ATP-lite), MiaPaCa-2; details: MIA PaCa-2, 96 h; inhibition of tumor cell growth by 50%; MiaPaCa-2 human pancreatic cancer cells; 4 days incubation; ATP-lite readout
Method: as §1, §2, §3, §4

[3] = system: Human umbilical vein endothelial cells (HUVEC); assay: Endothelial tube formation assay; details: 50% reduction in total endothelial tube length, HUVEC on Matrigel, overnight culture
Method: Assay 2: Endothelial Tube Formation Assay
Human umbilical vein endothelial cells (HUVEC) (Cascade Biologics #C-003-5C) were plated into 96-well black clear-bottom microplates (Cat. No. 3603, Corning, Inc.) containing 50 uL/well of BD Matrigel Basement Membrane Matrix (BD Biosciences #354234) at 7.5×10^3 cells/well. Inhibitors were serially diluted in 100% DMSO and subsequently added to cells to reach a final concentration of 0.5% DMSO and the plates cultured overnight at 37° C., 5% CO2 in (EGM™-2 MV) (Cambrex #CC-3202). […] Cell plates were incubated in the dark at 37° C., 5% CO2 for 10 minutes and then immediately imaged and quantitated on the Discovery—1 automated microscope (Molecular Devices Corp.) to determine the total endothelial tube length. The total endothelial tube length is calculated using the Angiogenesis image algorithm supplied with the MetaMorph software package (Molecular Devices Corp). […] The binary image is then analyzed to remove objects that are not part of the endothelial tube network, such as cell clumps or debris. Finally, the corrected binary image is processed to reduce the tubes to single pixel width from which the total tube length is calculated. […]

SMILES	IC50 [1] [nM]	IC50 [2] [nM]	IC50 [3] [nM]
CC(=NN(C)c1nc(C(F)(F)F)nc2ccccc12)c1ccc(C)cc1 [Compound 2]	< 1000	< 1000	< 1000
CC(=NN(C)c1nc(C)nc2ccccc12)c1ccc(C)cc1 [Compound 7, N-Methyl-N-(2-methyl-quinazolin-4-yl)-N-(1-p-tolyl-ethylidene)-hydrazine]	< 1000	< 1000	< 1000
CCC(=NNc1cc(-c2ccccc2)nc(C)n1)c1ccc(C)cc1 [Compound 22, N-(2-Methyl-6-phenyl-pyrimidin-4-yl)-N′-[1-p-tolyl-propylidene]-hydrazine]	1000 to 15000	1000 to 15000	
COc1ccccc1-c1cc(NN=C(C)c2ccc(C)cc2)ncn1 [Compound 25, N-[6-(2-Methoxy-phenyl)-pyrimidin-4-yl]-N′-[1-p-tolyl-ethylidene]-hydrazine]	< 1000	< 1000	
CCc1nc(NN=C(C)c2ccc(C)cc2)cc(-c2ccccc2OC)n1 [Compound 26, N-[2-Ethyl-6-(2-methoxy-phenyl)-pyrimidin-4-yl]-N′-[1-p-tolyl-ethylidene]-hydrazine]	< 1000	< 1000	
CC(=NNc1cc(-c2ccccc2F)nc(C)n1)c1ccc(C)cc1 [Compound 27, N-[6-(2-Fluoro-phenyl)-2-methyl-pyrimidin-4-yl]-N′-[1-p-tolyl-ethylidene]-hydrazine]	< 1000	< 1000	
COc1ccccc1-c1cc(NN=C(C)c2ccc(C)cc2)nc(C)n1 [Compound 29, N-[6-(2-Methoxy-phenyl)-2-methylpyrimidin-4-yl]-N′-[1-p-tolyl-ethylidene]-hydrazine]	< 1000	< 1000	
CC(=NNc1cc(-c2ccccc2C#N)nc(C)n1)c1ccc(C)cc1 [Compound 31, 2-(2-Methyl-6-{N′-[1-p-tolyl-ethylidene]-hydrazino}-pyrimidin-4-yl)-benzonitrile]	< 1000	< 1000	
CC(=NNc1cc(-c2ccccc2C)nc(C)n1)c1ccc(C)cc1 [Compound 32, N-[6-(2-methyl-phenyl)-2-methyl-pyrimidin-4-yl]-N′-[1-p-tolyl-ethylidene]-hydrazine]	< 1000	< 1000	
CC(=NNc1cc(-c2ccccc2N2CCOCC2)nc(C)n1)c1ccc(C)cc1 [Compound 33, N-[2-Methyl-6-(2-morpholin-4-yl-phenyl)-pyrimidin-4-yl]-N′-[1-p-tolyl-ethylidene]-hydrazine]	1000 to 15000	< 1000	
CC(=O)Nc1ccccc1-c1cc(NN=C(C)c2ccc(C)cc2)nc(C)n1 [Compound 34, N-[2-(2-Methyl-6-{N′-[1-p-tolyl-ethylidene]-hydrazino}-pyrimidin-4-yl)-phenyl]-acetamide]	< 1000	< 1000	
CC(=NNc1cc(-c2ccccc2CO)nc(C)n1)c1ccc(C)cc1 [Compound 35, [2-(2-Methyl-6-{N′-[1-p-tolyl-ethylidene]-hydrazino}-pyrimidin-4-yl)-phenyl]-methanol]	< 1000	< 1000	
CC(=NNc1cc(-c2c(C)noc2C)nc(C)n1)c1ccc(C)cc1 [Compound 36, N-[6-(3,5-Dimethyl-isoxazol-4-yl)-2-methyl-pyrimidin-4-yl]-N′-[1-p-tolyl-ethylidene]-hydrazine]	< 1000	< 1000	
CC(=NNc1cc(-c2ccccc2N)nc(C)n1)c1ccc(C)cc1 [Compound 38, 2-(2-Methyl-6-{N′-[1-p-tolyl-ethylidene]-hydrazino}-pyrimidin-4-yl)-phenylamine]	< 1000	< 1000	
CC(=NN(C)c1cc(-c2ccccc2)nc(C)n1)c1ccc(C)cc1 [Compound 39, N-Methyl-N-(2-methyl-6-phenyl-pyrimidin-4-yl)-N′-[1-p-tolyl-ethylidene]-hydrazine]	< 1000	< 1000	
COc1cccc(OC)c1-c1cc(NN=C(C)c2ccc(C)cc2)nc(C)n1 [Compound 40, N-[6-(2,6-Dimethoxy-phenyl)-2-methyl-pyrimidin-4-yl]-N′-[1-p-tolyl-ethylidene]-hydrazine]	< 1000	< 1000	
CC(=NNc1cc(-c2ccccc2)nc(C)n1)c1ccc(C)cc1 [Compound 41, N-(2-Methyl-6-phenyl-pyrimidin-4-yl)-N′-(1-p-tolyl-ethylidene)-hydrazine]	< 1000	< 1000	
CC(=NNc1cc(-c2ccccc2)nc(C)n1)c1ccc(N)cc1 [Compound 42, 4-{1-[(2-Methyl-6-phenyl-pyrimidin-4-yl)-hydrazono]-ethyl}-phenylamine]	1000 to 15000	1000 to 15000	

From patent US8288398B2, “Antiproliferative pyrimidyl, fused pyrimidyl and pyrimidyl hydrazones” (Merck Serono SA, priority 2005, dated 2012)
